# Data from the supplement of paper PMC7017272.
# ± gives the standard deviation of the averaged measurements.
# Key:
# Settings in all cases: treatment time: 3 days
# UT-SCC-24A [1] = assay: drug sensitivity score (DSS); higher = more sensitive
# Protocol: (§1)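 HNSCC cell lines (500 cells/well, 384-well) were cultured on plastic, on top of (2D) or embedded (3D) in Matrigel or human leiomyoma matrix Myogel (500 ug/mL; Myogel 3D mixed with rat collagen I). Cells were treated for 3 days with 5 ten-fold concentrations of each drug, and viability was read by CellTiter-Glo. Suffixes _1/_2/_3 on drug names are replicates.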
# UT-SCC-24A [2] = assay: maximal % inhibition of viability relative to DMSO; higher = stronger effect
# Protocol: as §1, with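 “CellTiter-Glo. Viability was normalised to DMSO (0% inhibition) and 100 uM benzethonium chloride (100% inhibition) controls and fitted with the FIMM DSRT pipeline to give IC50 (nM), maximal % inhibition and the drug sensitivity score (DSS).” for “CellTiter-Glo.”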
# UT-SCC-106A [3] = assay: drug sensitivity score (DSS); higher = more sensitive; extreme values may be limits of the assay
# Summary of the method: (§2)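 Viability was read with CellTiter-Glo 2.0 luminescence and scaled against vehicle (0.1% DMSO) and cell-killing control wells. The assay used HPV-negative HNSCC cell lines at 500 cells/well in 384-well plates, grown on plastic, on Matrigel or Myogel coatings (500 µg/mL), or embedded in Matrigel or Myogel plus rat collagen I, and treated for 3 days at five 10-fold concentrations. IC50, maximal inhibition and drug sensitivity score were derived from percent-inhibition dose–response curves fitted in the FIMM pipeline.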
# UT-SCC-14 = assay: as above
# Summary of the method: as §2
# UT-SCC-24B = assay: as above
# Summary of the method: as §2
# UT-SCC-28 = assay: as above
# Summary of the method: as §2
# UT-SCC-40 [4] = assay: as above
# Summary of the method: as §2
# UT-SCC-42A = assay: as above
# Summary of the method: as §2
# UT-SCC-42B [5] = assay: as above
# Summary of the method: as §2
# UT-SCC-44 [6] = assay: as above
# Summary of the method: as §2
# UT-SCC-73 [7] = assay: as above
# Summary of the method: as §2
# UT-SCC-81 = assay: as above
# Summary of the method: as §2
# UT-SCC-8 = assay: as above
# Summary of the method: as §2
# UT-SCC-106A [8] = assay: relative IC50 (midpoint of the fitted curve; maximal inhibition may be below 50%); higher = less potent
# Summary of the method: as §2
# UT-SCC-40 [9] = assay: as above
# Summary of the method: as §2
# UT-SCC-42B [10] = assay: as above
# Summary of the method: as §2
# UT-SCC-44 [11] = assay: as above
# Summary of the method: as §2
# UT-SCC-73 [12] = assay: as above
# Summary of the method: as §2
# UT-SCC-24A [13] = assay: relative IC50 (midpoint of the fitted curve; maximal inhibition may be below 50%); higher = less potent
# Protocol: as §1, with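 “CellTiter-Glo. Viability was normalised to DMSO (0% inhibition) and 100 uM benzethonium chloride (100% inhibition) controls and fitted with the FIMM DSRT pipeline to give IC50 (nM), maximal % inhibition and the drug sensitivity score (DSS).” for “CellTiter-Glo.”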
# [14] = culture condition: embedded in Matrigel
# [15] = culture condition: embedded in Myogel + collagen I
# [16] = culture condition: on top of Matrigel
# [17] = culture condition: on top of Myogel
# [18] = culture condition: plastic 2D (no matrix)
compound,measurement,setting,value
Cc1c(CN2CCN(C(=O)[C@H](C)O)CC2)sc2c(N3CCOCC3)nc(-c3cnc(N)nc3)nc12 [Apitolisib],drug sensitivity score,UT-SCC-24A [1]; [14],12.5 ± 2.4 DSS
same,drug sensitivity score,UT-SCC-24A [1]; [15],13.1 ± 1.9 DSS
same,drug sensitivity score,UT-SCC-24A [1]; [16],13 ± 0.85 DSS
same,drug sensitivity score,UT-SCC-24A [1]; [17],9.97 ± 0.15 DSS
same,drug sensitivity score,UT-SCC-24A [1]; [18],13.5 ± 1.6 DSS
same,maximal % inhibition of viability,UT-SCC-24A [2]; [14],90.3 ± 1.6%
same,maximal % inhibition of viability,UT-SCC-24A [2]; [15],85.4 ± 2.3%
same,maximal % inhibition of viability,UT-SCC-24A [2]; [16],87.7 ± 0.2%
same,maximal % inhibition of viability,UT-SCC-24A [2]; [17],83.4 ± 1.9%
same,maximal % inhibition of viability,UT-SCC-24A [2]; [18],88.57 ± 0.29%
same,drug sensitivity score,UT-SCC-106A [3]; [14],11.7 ± 0.66 DSS
same,drug sensitivity score,UT-SCC-106A [3]; [15],6.97 ± 1 DSS
same,drug sensitivity score,UT-SCC-106A [3]; [16],10.8 ± 0.35 DSS
same,drug sensitivity score,UT-SCC-106A [3]; [17],6.23 ± 0.6 DSS
same,drug sensitivity score,UT-SCC-106A [3]; [18],9.27 ± 1 DSS
same,drug sensitivity score,UT-SCC-14; [14],8.77 ± 1.1 DSS
same,drug sensitivity score,UT-SCC-14; [15],6.9 ± 1.9 DSS
same,drug sensitivity score,UT-SCC-14; [16],7.97 ± 1.6 DSS
same,drug sensitivity score,UT-SCC-14; [17],6.43 ± 1.1 DSS
same,drug sensitivity score,UT-SCC-14; [18],6.47 ± 1.7 DSS
same,drug sensitivity score,UT-SCC-24B; [14],10.8 ± 1.8 DSS
same,drug sensitivity score,UT-SCC-24B; [15],11.8 ± 1.1 DSS
same,drug sensitivity score,UT-SCC-24B; [16],10.6 ± 0.76 DSS
same,drug sensitivity score,UT-SCC-24B; [17],9.6 ± 0.2 DSS
same,drug sensitivity score,UT-SCC-24B; [18],11.1 ± 1 DSS
same,drug sensitivity score,UT-SCC-28; [14],10.4 ± 1.3 DSS
same,drug sensitivity score,UT-SCC-28; [15],9 ± 2 DSS
same,drug sensitivity score,UT-SCC-28; [16],12.4 ± 1.5 DSS
same,drug sensitivity score,UT-SCC-28; [18],10.8 ± 0.51 DSS
same,drug sensitivity score,UT-SCC-40 [4]; [14],9.4 ± 0.27 DSS
same,drug sensitivity score,UT-SCC-40 [4]; [15],7.23 ± 0.25 DSS
same,drug sensitivity score,UT-SCC-40 [4]; [16],8.07 ± 0.49 DSS
same,drug sensitivity score,UT-SCC-40 [4]; [17],5.3 ± 1.7 DSS
same,drug sensitivity score,UT-SCC-40 [4]; [18],6.33 ± 1.2 DSS
same,drug sensitivity score,UT-SCC-42A; [14],7.43 ± 0.45 DSS
same,drug sensitivity score,UT-SCC-42A; [15],8.1 ± 1.3 DSS
same,drug sensitivity score,UT-SCC-42A; [16],8.03 ± 1.3 DSS
same,drug sensitivity score,UT-SCC-42A; [17],7.07 ± 0.4 DSS
same,drug sensitivity score,UT-SCC-42A; [18],8.8 ± 1.1 DSS
same,drug sensitivity score,UT-SCC-42B [5]; [14],7.13 ± 2.4 DSS
same,drug sensitivity score,UT-SCC-42B [5]; [16],5.47 ± 0.81 DSS
same,drug sensitivity score,UT-SCC-42B [5]; [17],4.4 ± 1 DSS
same,drug sensitivity score,UT-SCC-42B [5]; [18],4.43 ± 0.93 DSS
same,drug sensitivity score,UT-SCC-44 [6]; [14],9.77 ± 0.86 DSS
same,drug sensitivity score,UT-SCC-44 [6]; [15],6.17 ± 1.4 DSS
same,drug sensitivity score,UT-SCC-44 [6]; [16],8.4 ± 0.1 DSS
same,drug sensitivity score,UT-SCC-44 [6]; [17],8.03 ± 2.9 DSS
same,drug sensitivity score,UT-SCC-44 [6]; [18],6.67 ± 0.55 DSS
same,drug sensitivity score,UT-SCC-73 [7]; [14],9 ± 1.2 DSS
same,drug sensitivity score,UT-SCC-73 [7]; [15],8.2 ± 1.4 DSS
same,drug sensitivity score,UT-SCC-73 [7]; [16],7.8 ± 0.36 DSS
same,drug sensitivity score,UT-SCC-73 [7]; [17],7.37 ± 0.15 DSS
same,drug sensitivity score,UT-SCC-73 [7]; [18],7.23 ± 1.2 DSS
same,drug sensitivity score,UT-SCC-81; [14],14.9 ± 3 DSS
same,drug sensitivity score,UT-SCC-81; [15],10.4 ± 0.81 DSS
same,drug sensitivity score,UT-SCC-81; [16],8.87 ± 0.71 DSS
same,drug sensitivity score,UT-SCC-81; [17],8.53 ± 1.1 DSS
same,drug sensitivity score,UT-SCC-81; [18],8.8 ± 1.8 DSS
same,drug sensitivity score,UT-SCC-8; [14],9.63 ± 0.38 DSS
same,drug sensitivity score,UT-SCC-8; [15],6.2 ± 2.1 DSS
same,drug sensitivity score,UT-SCC-8; [16],9.23 ± 0.51 DSS
same,drug sensitivity score,UT-SCC-8; [17],9.13 ± 1 DSS
same,drug sensitivity score,UT-SCC-8; [18],9.17 ± 0.32 DSS
same,relative IC50,UT-SCC-106A [8]; [14],336 nM
same,relative IC50,UT-SCC-106A [8]; [15],862 nM
same,relative IC50,UT-SCC-106A [8]; [16],488 nM
same,relative IC50,UT-SCC-106A [8]; [17],1470 nM
same,relative IC50,UT-SCC-106A [8]; [18],936 nM
same,relative IC50,UT-SCC-40 [9]; [14],1240 nM
same,relative IC50,UT-SCC-40 [9]; [15],1560 nM
same,relative IC50,UT-SCC-40 [9]; [16],1520 nM
same,relative IC50,UT-SCC-40 [9]; [17],1870 nM
same,relative IC50,UT-SCC-40 [9]; [18],1820 nM
same,relative IC50,UT-SCC-42B [10]; [14],1900 nM
same,relative IC50,UT-SCC-42B [10]; [16],2320 nM
same,relative IC50,UT-SCC-42B [10]; [17],2160 nM
same,relative IC50,UT-SCC-42B [10]; [18],2390 nM
same,relative IC50,UT-SCC-44 [11]; [14],279 nM
same,relative IC50,UT-SCC-44 [11]; [15],1450 nM
same,relative IC50,UT-SCC-44 [11]; [16],452 nM
same,relative IC50,UT-SCC-44 [11]; [18],1130 nM
same,relative IC50,UT-SCC-73 [12]; [14],1110 nM
same,relative IC50,UT-SCC-73 [12]; [15],1170 nM
same,relative IC50,UT-SCC-73 [12]; [16],1450 nM
same,relative IC50,UT-SCC-73 [12]; [17],1540 nM
same,relative IC50,UT-SCC-73 [12]; [18],1670 nM
same,relative IC50,UT-SCC-24A [13]; [14],577 nM
same,relative IC50,UT-SCC-24A [13]; [15],436 nM
same,relative IC50,UT-SCC-24A [13]; [16],483 nM
same,relative IC50,UT-SCC-24A [13]; [17],818 nM
same,relative IC50,UT-SCC-24A [13]; [18],416 nM
